Measurements as given in article PMC5550016, “Aminophosphinates against Helicobacter pylori ureolysis—Biochemical and whole-cell inhibition characteristics” (PLoS ONE, 2017).
Like-named read-outs stand apart in the source and are kept apart here.

What was measured:
[1] = biological target: T1, urease in intact H. pylori J99 (Helicobacter pylori, UniProt P69997); assay: Urease inhibition in whole cells of H. pylori J99; type: cell-based
T1 construct: In the intact H. pylori J99 cells, the urease susceptibility profile was similar to that of E. coli (pGEM::ureOP); endogenous in cells
T1 sequence (Q9ZMZ4 whole entry): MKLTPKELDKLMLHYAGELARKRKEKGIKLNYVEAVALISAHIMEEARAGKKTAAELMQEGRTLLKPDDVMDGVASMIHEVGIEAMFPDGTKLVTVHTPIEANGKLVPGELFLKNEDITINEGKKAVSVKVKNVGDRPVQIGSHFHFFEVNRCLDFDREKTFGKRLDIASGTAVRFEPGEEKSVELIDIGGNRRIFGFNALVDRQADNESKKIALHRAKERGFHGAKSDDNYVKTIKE
T1 sequence (P69997 whole entry): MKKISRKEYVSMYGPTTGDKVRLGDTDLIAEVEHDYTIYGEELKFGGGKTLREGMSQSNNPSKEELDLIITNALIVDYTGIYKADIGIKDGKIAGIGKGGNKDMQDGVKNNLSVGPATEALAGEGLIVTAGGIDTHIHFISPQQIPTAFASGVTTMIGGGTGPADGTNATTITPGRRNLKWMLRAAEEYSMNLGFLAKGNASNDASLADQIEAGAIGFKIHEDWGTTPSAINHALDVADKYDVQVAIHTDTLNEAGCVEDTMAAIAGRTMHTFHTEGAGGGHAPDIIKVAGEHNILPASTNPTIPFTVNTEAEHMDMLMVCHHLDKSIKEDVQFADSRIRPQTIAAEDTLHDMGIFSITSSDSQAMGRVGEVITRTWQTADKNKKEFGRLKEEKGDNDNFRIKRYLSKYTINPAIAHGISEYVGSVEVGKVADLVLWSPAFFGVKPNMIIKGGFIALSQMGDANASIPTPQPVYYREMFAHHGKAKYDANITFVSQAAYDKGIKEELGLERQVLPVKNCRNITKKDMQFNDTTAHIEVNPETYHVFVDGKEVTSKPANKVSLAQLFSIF

[2] = biological target: T2, urease in intact E. coli (pGEM::ureOP) cells (Helicobacter pylori, UniProt B5Z674); assay: Urease inhibition in whole cells of E. coli + pGEM::ureOP; type: cell-based; details: IC50 exceeding 2 mM considered not active
T2 construct: plasmid pGEM::ureOP, which encodes the entire urease gene cluster, was used to produce recombinant H. pylori urease; expressed in transfected cells; host or cells: E. coli Rosetta2 (DE3) transformed with pGEM::ureOP
T2 sequence (B5Z674 whole entry, looked up): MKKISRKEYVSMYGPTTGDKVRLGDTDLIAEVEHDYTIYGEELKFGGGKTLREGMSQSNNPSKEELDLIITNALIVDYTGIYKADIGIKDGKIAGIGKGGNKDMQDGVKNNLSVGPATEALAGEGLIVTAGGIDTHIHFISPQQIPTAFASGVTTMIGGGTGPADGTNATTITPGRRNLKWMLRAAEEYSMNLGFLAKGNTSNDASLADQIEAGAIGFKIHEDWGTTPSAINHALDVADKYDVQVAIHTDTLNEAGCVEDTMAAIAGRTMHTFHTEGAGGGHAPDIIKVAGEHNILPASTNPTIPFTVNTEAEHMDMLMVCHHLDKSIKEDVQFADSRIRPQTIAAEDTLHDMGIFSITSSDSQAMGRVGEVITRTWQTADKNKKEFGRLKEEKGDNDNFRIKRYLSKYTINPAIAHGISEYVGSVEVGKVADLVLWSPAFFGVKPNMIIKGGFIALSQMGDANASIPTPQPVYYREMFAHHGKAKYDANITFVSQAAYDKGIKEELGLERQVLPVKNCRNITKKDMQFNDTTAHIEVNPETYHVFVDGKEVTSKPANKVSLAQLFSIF
Protocol: The expression strain E. coli + pGEM::ureOP was cultured in 150 mL of LB broth (Biocorp, Poland) with 100 μg/mL ampicillin (Polfa, Tarchomin, Poland) at 37°C and induced with IPTG (0.75 mM) and Ni^2+ (0.75 mM) during the exponential growth phase, which was determined by the OD600 measurements (OD600 = 0.6). Further expression was conducted for 24 h at 22°C. The bacterial culture (1 mL) was harvested via centrifugation (2 min, 20 376 x g, 37°C) and washed three times with PBS. The pellets from 1-mL samples of the expression cell culture were resuspended in 100 μL of PBS. The hydrolysis of urea that is catalyzed by whole bacterial cells was performed in 96-well plates (Rotilabo, U-profile). The reaction progress curves were obtained by the addition of bacterial cells (1×10^9 CFU/mL final concentration) into mixtures (300 μL final volume) that contained 5 mM urea and various inhibitor concentrations that depended on their inhibitory strength. Alternatively, the reaction was initiated via the addition of a concentrated solution of urea after a 120-min preincubation of bacterial cells with the inhibitor. Samples (50 μL) of the reaction mixture were removed after the appropriate reaction time. The enzymatic reactions in the samples were terminated via the introduction of 100 μL of phenol-sodium nitroprusside solution, immediately followed by the addition of 100 μL of NaOH-hypochlorite solution. The absorption of indophenol blue was measured at 650 nm using a TECAN-Sunrise absorbance reader equipped with a gradient filter and Magellan software. The IC50 values were determined from the linear regression of the urease activity versus the logarithm of the inhibitor concentration. The reaction was studied in the absence and in the presence of the inhibitor. The influence of dimethylformamide (DMF), which was used as a solvent for several compounds, was also determined.

[3] = biological target: T3, purified recombinant urease from H. pylori (Helicobacter pylori, UniProt B5Z674); assay: Inhibition of purified recombinant H. pylori urease (phenol-hypochlorite, Lineweaver-Burk); type: biochemical; details: 50 mM phosphate buffer pH 7.5, 37°C, 0.1–2.5 mM urea, competitive reversible inhibition
T3 construct: plasmid pGEM::ureOP, which encodes the entire urease gene cluster, was used to produce recombinant H. pylori urease; made in house; host or cells: E. coli Rosetta2 (DE3) + pGEM::ureOP
T3 sequence (B5Z674 whole entry, looked up): as above
Protocol: The kinetic parameters of urease were determined by measuring the initial rates of the reactions in 50 mM phosphate buffer (pH 7.5) at 37°C. Ammonia was routinely quantified by the phenol hypochlorite method as reported previously.
Inhibition studies were conducted by initiating the enzymatic reaction with the addition of the enzyme into assay mixtures (200 μL total volume) containing increasing concentrations of inhibitors and 0.1–2.5 mM urea. After 15 min of incubation at 37°C, the reaction was stopped by adding phenol-hypochlorite reagents and the absorbance of the formed indophenol blue complexes was measured at 650 nm. The Ki values were determined from Lineweaver-Burk plots after testing at least five inhibitor concentrations in a range that depended on their inhibitory strength. The concentration of inhibitor that caused the loss of 50% of the enzyme’s activity (IC50) was determined from the measurements that were performed at a urea concentration of 0.6 mM and calculated using the linear regression of the urease activity versus the logarithm of the inhibitor concentrations.
The values of Ki and IC50 for all analyzed compounds were calculated using the appropriate equations in GraphPad Prism 5. Errors were reported with two significant digits, and each measured parameter was given with the same number of decimal places as its error [32].

[4] = tested on: murine mammary gland epithelium Eph4-Ev; assay: Sulforhodamine B antiproliferative assay, Eph4-Ev; type: cell-based; details: Mus musculus, compound 0.5 mM, 72 h, read-out: % Proliferation inhibition ± SD
Protocol: (§1) The BALB/3T3 cell line was cultured in Dulbecco MEM (Gibco, Scotland) supplemented with 10% (v/v) FBS (Sigma-Aldrich, Poznań, Poland) and 2 mM L-glutamine (Sigma-Aldrich, Poznań, Poland). The MCF-10A cell line was cultured in F-12 Nutrient mixture supplemented with 5% (v/v) horse serum (both Gibco, Scotland), 0.05 μg/mL cholera toxin, 10 μg/mL insulin, 0.5 μg/mL hydrocortisone, and 20 ng/mL EGFH (all Sigma-Aldrich, Poznań, Poland). The Eph4-Ev cell line was cultured in Dulbecco MEM supplemented with 2 mM L-glutamine, 10% (v/v) calf bovine serum (ATCC Rockville, Maryland, USA) and puromycin (Sigma-Aldrich, Poznań, Poland). The HEC A10 cell line was cultured in OPTI-MEM (IIET, Wroclaw, Poland) supplemented with 2 mM L-glutamine and 5% (v/v) FBS. All culture media were additionally supplemented with antibiotics: 100 U/mL penicillin and 100 μg/mL streptomycin (both Polfa-Tarchomin, Poland). During all experiments, cells were maintained in a humid atmosphere at 37°C and 5% CO2 and passaged twice a week using EDTA-Trypsin (pH 8; IIET, Wroclaw, Poland) solution as a detachment agent.
(§2) This assay was used as previously described with minor modifications. Briefly, 24 h before adding the tested compounds, cells were seeded in 96-well plates (Sarstedt, Germany) in appropriate culture medium with 10^5 […] (100 μL/well). Cells were treated with each compound in at least four concentrations in the range from 500–4 μM for 72 h. Next, cells were fixed with 50 μL/well of 50% (w/v) trichloroacetic acid (Avantor Performance Materials, Gliwice, Poland). After a 1-hour incubation, the plates were washed several times with tap water, and 50 μL of 0.4% (w/v) solution of sulforhodamine B (Sigma-Aldrich, Germany) in 1% (v/v) acetic acid (Avantor Performance Materials, Gliwice, Poland) was added to each well. After a 30-min incubation at room temperature, unbound dye was washed out with 1% (v/v) acetic acid, whereas bound dye was solubilized with 10 mM unbuffered TRIS (Avantor Performance Materials, Gliwice, Poland) solution. The entire procedure was performed using an EL-406 washing station (BioTek Instruments, USA). Next, absorbance at 540 nm was measured using a Synergy H4 Hybrid Reader (BioTek Instruments, USA). Compounds at each concentration were tested in triplicate in a single experiment, and each experiment was repeated three times independently. The results were calculated using the Prolab-3 system based on Cheburator 0.4 software and was presented as proliferation inhibition percentages at the highest concentration used.

[5] = tested on: human mammary gland MCF-10A; assay: Sulforhodamine B antiproliferative assay, MCF-10A; type: cell-based; details: compound 0.5 mM, 72 h, read-out: % Proliferation inhibition ± SD
Protocol: as §1, §2

[6] = tested on: mouse fibroblasts BALB/3T3; assay: Sulforhodamine B antiproliferative assay, BALB/3T3; type: cell-based; details: compound 0.5 mM, 72 h, read-out: % Proliferation inhibition ± SD
Protocol: as §1, §2

[7] = tested on: immortalized murine endothelial cell line from peripheral lymph node HEC A10; assay: Sulforhodamine B antiproliferative assay, HEC A10; type: cell-based; details: Mus musculus, compound 0.5 mM, 72 h, read-out: % Proliferation inhibition ± SD
Protocol: as §1, §2

[8] = cells grown with urea, 2 h of preincubation with inhibitors in PBS under microaerobic conditions, read-out: IC502h PBS
[9] = cells grown with urea, 2 h of preincubation with inhibitors in growth medium under microaerobic conditions, read-out: IC502h medium
[10] = cells grown with urea, without preincubation, read-out: IC500
[11] = cells grown without urea, 2 h of preincubation with inhibitors in PBS under microaerobic conditions, read-out: IC502h PBS
[12] = cells grown without urea, without preincubation, read-out: IC500
[13] = without preincubation of cells with inhibitory compounds, 30-min reactions, 5 mM urea
[14] = read-out: IC500, without preincubation of cells with inhibitory compounds, 30-min reactions, 5 mM urea
[15] = read-out: IC502h PBS, 2 h of preincubation with inhibitors in PBS
[16] = IC500, without preincubation of cells with inhibitory compounds, 30-min reactions, 5 mM urea
[17] = IC502h PBS, 2 h of preincubation with inhibitors in PBS

Structure (SMILES) | IC50 [1, 8] | IC50 [1, 9] | IC50 [1, 10] | IC50 [1, 11] | IC50 [1, 12] | Ki ([3]; Ki) | IC50 [2, 14] | IC50 [2, 15] | also measured
O=P(O)(CNCc1ccccc1)CNCc1ccccc1 [Compound 23] | > 2000 µM | > 2000 µM | > 2000 µM | > 2000 µM | > 2000 µM | 50.7 ± 4.8 µM | – | – | IC500 [2, 13]: complete lack of inhibitory effects
NCP(=O)(O)CN1CCCCC1 [Compound 16] | > 2000 µM | > 2000 µM | > 2000 µM | > 2000 µM | > 2000 µM | – | > 2000 µM | > 2000 µM | –
CCCCCNCP(=O)(O)CN [Compound 12] | 853 ± 93 µM | 806 ± 72 µM | 813 ± 61 µM | 917 ± 105 µM | 872 ± 68 µM | 43.1 ± 3.6 µM | – | – | IC50 [2, 16]: 1670 ± 232 µM; IC50 [2, 17]: 475 ± 73 µM
CCCCCCCCNCP(=O)(O)CN [Compound 15] | 712 ± 28 µM | 276 ± 17 µM | 1010 ± 84 µM | 638 ± 22 µM | 1260 ± 53 µM | – | > 2000 µM | > 2000 µM | inhibition at 500 µM [4]: 2.7 ± 1.1%; inhibition at 500 µM [5]: 1.8 ± 1.2%; inhibition at 500 µM [6]: 0%; inhibition at 500 µM [7]: 0%; Ki [3]: > 2000 µM
NCP(=O)(O)CNC1CCCCC1 [Compound 17] | > 2000 µM | > 2000 µM | > 2000 µM | > 2000 µM | > 2000 µM | – | > 2000 µM | > 2000 µM | –
CCCCCCCNCP(=O)(O)CN [Compound 14] | 672 ± 52 µM | 474 ± 34 µM | 942 ± 79 µM | 675 ± 33 µM | 743 ± 74 µM | 878 ± 25 µM | > 2000 µM | > 2000 µM | IC500 [2, 13]: complete lack of inhibitory effects
CN(C)CP(=O)(O)CN [Compound 8] | – | – | – | – | – | 29.9 ± 2 µM | – | – | –
CCCNCP(=O)(O)CN [Compound 9] | 940 ± 59 µM | 553 ± 44 µM | 1500 ± 160 µM | 883 ± 96 µM | 772 ± 143 µM | 22.1 ± 2.1 µM | – | – | inhibition at 500 µM [4]: 0%; inhibition at 500 µM [5]: 0%; inhibition at 500 µM [6]: 0.7 ± 0.6%; IC50 [2, 16]: 746 ± 94 µM; IC50 [2, 17]: 306 ± 43 µM; inhibition at 500 µM [7]: 2.2 ± 1.5%
CCN(CC)CP(=O)(O)CN [Compound 20] | > 2000 µM | > 2000 µM | > 2000 µM | > 2000 µM | > 2000 µM | – | > 2000 µM | > 2000 µM | –
CCCCNCP(=O)(O)CN [Compound 11] | 816 ± 39 µM | 470 ± 38 µM | 733 ± 9.2 µM | 933 ± 206 µM | 881 ± 35 µM | 27 ± 2.1 µM | – | – | IC50 [2, 16]: 779 ± 99 µM; IC50 [2, 17]: 284 ± 41 µM
CCCCCCNCP(=O)(O)CO [Compound 5] | – | – | – | – | – | 74.3 ± 4.7 µM | – | – | –
NCP(=O)(O)CNCc1ccccc1 [Compound 18] | > 2000 µM | > 2000 µM | > 2000 µM | > 2000 µM | > 2000 µM | 44.4 ± 2.5 µM | > 2000 µM | > 2000 µM | IC500 [2, 13]: complete lack of inhibitory effects
CN(Cc1ccccc1)CP(=O)(O)CN [Compound 19] | > 2000 µM | > 2000 µM | > 2000 µM | > 2000 µM | > 2000 µM | 36.4 ± 4.9 µM | – | – | IC500 [2, 13]: complete lack of inhibitory effects
CC(C)CNCP(=O)(O)CN [Compound 10] | 1130 ± 83 µM | 835 ± 34 µM | > 2000 µM | 980 ± 35 µM | 913 ± 63 µM | 440 ± 70 µM | > 2000 µM | – | IC50 [2, 17]: 1870 ± 113 µM
CC(=O)NO [Compound 24, acetohydroxamic acid, reference compound] | 1360 ± 194 µM | 192 ± 26 µM | 1670 ± 70 µM | 156 ± 32 µM | > 2000 µM | – | – | – | IC50 ([1]; urea-grown cells, preincubation in PBS, read-out: IC502h PBS): 1350 µM; IC50 ([1]; urea-grown cells, without former preincubation, read-out: IC500): 1660 µM; IC50 ([2]; 2 h of preincubation with inhibitors in PBS, read-out: IC502h PBS): 96 ± 17 µM; IC50 ([2]; without preincubation of cells with inhibitory compounds, 30-min reactions, 5 mM urea, read-out: IC500): 153 ± 31 µM; Ki ([3]; listed as acetohydroxamic acid, read-out: Ki): 23 µM; Ki ([3]; read-out: Ki): 23.2 ± 1.5 µM
CN(C)CP(=O)(O)CN(C)C [Compound 22] | > 2000 µM | > 2000 µM | > 2000 µM | > 2000 µM | > 2000 µM | – | > 2000 µM | > 2000 µM | –
